By IC50 is commonly meant the concentration that inhibits the measured activity by half. A lower IC50 goes with greater potency in that assay.

The target of the experiment is Neprilysin (Homo sapiens, UniProt P08473). Nature of the experiment: In vitro inhibition of Neutral Endopeptidase.
Sequence of Neprilysin (P08473 whole entry): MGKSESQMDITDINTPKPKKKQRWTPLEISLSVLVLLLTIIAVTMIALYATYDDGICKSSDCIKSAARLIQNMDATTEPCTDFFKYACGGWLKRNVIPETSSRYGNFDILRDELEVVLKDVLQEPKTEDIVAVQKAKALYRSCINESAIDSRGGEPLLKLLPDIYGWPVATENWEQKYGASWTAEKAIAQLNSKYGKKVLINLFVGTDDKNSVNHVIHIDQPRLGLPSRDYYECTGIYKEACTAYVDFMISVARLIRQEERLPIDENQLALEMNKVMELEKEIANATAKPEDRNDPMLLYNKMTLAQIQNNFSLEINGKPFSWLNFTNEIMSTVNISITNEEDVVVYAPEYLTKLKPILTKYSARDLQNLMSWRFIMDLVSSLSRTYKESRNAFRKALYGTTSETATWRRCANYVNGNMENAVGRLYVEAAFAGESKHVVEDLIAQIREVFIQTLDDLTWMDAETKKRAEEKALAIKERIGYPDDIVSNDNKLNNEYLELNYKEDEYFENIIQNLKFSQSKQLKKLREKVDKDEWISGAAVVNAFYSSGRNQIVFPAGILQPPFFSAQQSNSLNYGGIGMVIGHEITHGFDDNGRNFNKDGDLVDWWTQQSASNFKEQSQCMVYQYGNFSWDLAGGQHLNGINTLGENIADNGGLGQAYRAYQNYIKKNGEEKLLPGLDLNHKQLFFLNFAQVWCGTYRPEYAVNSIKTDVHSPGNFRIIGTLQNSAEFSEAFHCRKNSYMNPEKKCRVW
In turn, `COCCOCC(CC1(C(=O)N[C@H]2CC[C@@H](C(=O)O)CC2)CCCC1)C(=O)Oc1ccc2c(c1)CCC2` (some centres not stated) had an IC50 of 65 nM.
The compound `O=C(O)C(COc1ccccc1)C[C@@H](Cc1ccc(-c2ccccc2)cc1)C(=O)NCc1nn[nH]n1` (some centres not stated) gave an IC50 of 19 nM.
`O=C(O)C(COc1ccccc1)C[C@@H](Cc1ccc(-c2ccccc2)cc1)C(=O)Nc1nnn[nH]1` (some centres not stated) registered an IC50 of 7.4 nM.
To `CC(C[C@@H](Cc1ccc(-c2ccccc2)cc1)C(=O)Nc1nc(CC(=O)O)cs1)C(=O)O` (some centres not stated) belongs 58 nM; to `O=C(O)Cc1csc(NC(=O)[C@H](Cc2ccc(-c3ccccc3)cc2)C[C@H](COc2ccccc2)C(=O)O)n1`, 3.3 nM.
To `O=C(O)Cc1csc(NC(=O)[C@H](Cc2ccc(-c3ccccc3)cc2)C[C@@H](COc2ccccc2)C(=O)O)n1` belongs 0.69 nM; to `O=C(O)CNC(=O)[C@H](Cc1ccc(-c2ccccc2)cc1)C[C@@H](COc1ccccc1)C(=O)O`, 3.2 nM.
Regarding `O=C(O)Cc1nnc(NC(=O)[C@H](Cc2ccc(-c3ccccc3)cc2)CC(COc2ccccc2)C(=O)O)s1` (some centres not stated), half-maximal inhibition (IC50) was put at 92 nM.
As to `O=C(O)CNC(=O)[C@H](Cc1ccc(-c2ccccc2)cc1)C[C@H](COc1ccccc1)C(=O)O`, half-maximal inhibition (IC50) was put at 5.9 nM.
Regarding `O=C(O)CC[C@@H](Cc1ccc(-c2ccccc2)cc1)C(=O)Nc1nc(CC(=O)O)cs1`, the half-maximal inhibitory concentration (IC50) was found to be 122 nM.
To `CCCCC(C[C@@H](Cc1ccc(-c2ccccc2)cc1)C(=O)Nc1nc(CC(=O)O)cs1)C(=O)O` (single isomer, unassigned; isomer A) belongs 10 nM.
To `CCCCC(C[C@@H](Cc1ccc(-c2ccccc2)cc1)C(=O)Nc1nc(CC(=O)O)cs1)C(=O)O` (stereo in doubt) belongs 9.8 nM.

Source of the values: ChEMBL document CHEMBL1129104, “Synthesis and evaluation of 2-(biphenylmethyl)glutaric acid amide derivatives as neutral endopeptidase inhibitors” (Bioorg Med Chem Lett, 1996).
